Measurements published in patent publication US12263182B2, “Method of introducing an mRNA molecule into a cell” (PCI Biotech AS, priority 2018, dated 2025).

How the values were obtained:
skin of mice = assay: Intradermal naked luciferase mRNA delivery with PCI, bio-luminescence imaging (IVIS) of injection sites; type: in vivo; conditions: for effect on mRNA delivery (fold increase in luminescence vs mRNA only): Example 1C, 2 μg unmodified mRNA L-6307, 0.003 μg TPCS2a
Method: Firefly luciferase mRNA (1921 nucleotides in length; L-6107—with modified bases 5-methylcytidine (5meC) and pseudo-uridine (ψ); L-6307—unmodified mRNA; L-7202—with modified base 5-methoxyuridine (5moU), and with the TriLink CleanCap™ modification as the capping structure, purchased from TriLink Biotechnologies, San Diego, USA) and TPCS2a (Amphinex®, PCI Biotech AS, Norway) were mixed in a volume of 20 μl PBS and the mixture was injected into the skin of mice at time 0. Different doses were used in different experiments, and in control samples no TPCS2a was used. Injections were performed in 4 sites (A-D) per mouse (see FIG. 1 and diagram and table below), and the injection sites were illuminated in general 60 min after mRNA/TPCS2a injection. With this set-up the two sites in each animal not receiving TPCS2a act as controls internal to each animal. This is useful for being able to correct for possible differences between animals e.g. in the injection and distribution of luciferin prior to the bio-luminescence imaging.
Injection sites were illuminated with blue light (wavelength between 400 and 540 nm with a peak at around 435 nm) from the LumiSource illumination device.
4-6 or 20-24 hours after illumination luciferase activity at the injection sites was analysed by bio-luminescence imaging in the IVIS instrument (IVIS Spectrum, model 124375R from PerkinElmer). Pictures were taken 20 min after luciferin injection, and bio-luminescence in a defined region-of-interest (ROI) around each injection site was quantified. The procedure for IVIS imaging was as follows: i) The mice were given an intraperitoneal injection of 3 mg D-Luciferin (200 μl of 15 mg/ml stock).
ii) After approximately 10 min, the mice were anaesthetized by a subcutaneous injection of Zoletil (10-15 mg/kg xylasin, 5-10 mg/kg butorphanol and 15-20 mg/kg Zoletil (containing zolazepam and tiletamine)).
iii) 20 min after D-luciferin injection, mice were placed in the IVIS instrument and pictures were taken with automatic exposure of Luminescence (Andor camera IS0825R4582; iKon Living Image version: 4.5.2.18424. Binning factor: 8; Excitation filter: Block; Emission filter: Open; f Number: 1)
iv) The bio-luminescence in ROIs covering each injection site was measured to quantify luciferase expression. The detailed set-up of a typical experiment (Example 1) can be found in Table 1.
Animals were injected by mRNA and TPCS2a as described under Methods and treated as described in Table 1 with the sites shown in FIG. 8.
3 μg mRNA and different amounts of TPCS2a (ranging from 0.0003 μg to 10 μg) were mixed and injected into the skin of mice as described under Methods. 60 min after the injections the mice were illuminated for 6 (in general) or 3 min (in one case) with blue light from the LumiSource illumination device. The animals were injected with luciferin and imaged in the IVIS instrument as described under Methods. The luminescence in defined regions of interest round the injection sites was assessed in the IVIS instrument. For each animal the luminescence at the sites receiving mRNA+TPCS2a was compared to the luminescence at the sites receiving mRNA only, and the fold increase (FI) in luminescence at the TPCS2a injected sites in each animal was calculated by the formula FI=luminescencemRNA+TPCS2a/luminescencemRNA only. […]
Lipofectamine is a very efficient transfection agent commonly used for delivery of mRNA and other nucleic acids; and it has also been used for mRNA delivery in vivo (Zangi et al., 2013, supra). However several type of toxic reactions have been observed with in vivo use of lipofectamine, limiting the possibilities for clinical use of this transfection agent. […]

TC-1 tumours = assay: Intratumoural luciferase mRNA delivery with PCI (red light 652 nm), luciferase enzymatic assay on tumour homogenates; type: in vivo, mice; conditions: Example 2
Method: An experiment was performed to study in vivo naked mRNA delivery to TC-1 tumours (model for HPV-induced tumours) in mice.
In these experiments the TC-1 tumour model for HPV-induced cancer was employed. mRNA delivery was assessed by performing a luciferase enzymatic assay on homogenates from tumours harvested the day after illumination. Red light laser light illumination with a wavelength of 652 nm was used. The experiment was performed as follows: • Luciferase mRNA (L-7202 CleanCap™ FLuc mRNA (5moU)) from TriLink, 3 μg per injection) was mixed with TPCS2a and injected into the tumours in an injection volume of 20 μl. • 60 min after mRNA/TPCS2a injection the tumours were illuminated with different doses of red laser light (at 652 nm) for 12.5-500 seconds. • The day after illumination, all tumours were removed and frozen for later enzymatic assay for luciferase (Luciferase Assay System, Promega, Cat #E1500). • The protein content in the samples was measured with the RC DC Protein Assay kit (BioRad) assay, and the relative amounts of active luciferase in each sample was calculated as Relative Luminescence Units (RLU: Arbitrary units) per mg of protein.

MC-38 tumours = assay: Intratumoural luciferase mRNA delivery with PCI (blue light), luciferase enzymatic assay on tumour homogenates; type: in vivo, mice; conditions: Example 3, 6 min blue light
Method: An experiment was performed to study in vivo naked mRNA delivery to colon adenocarcinoma tumours (MC-38 tumours) in mice.
The experiment was performed with Luciferase-encoding modified mRNA, and the effect was analysed by an enzymatic luciferase assay on tumour extracts, with tumours harvested 20 hours after illumination. Each animal had two tumours (A and B) that were injected and analysed separately.
TriLink modified luciferase mRNA (T14-GU03A), 3 μg was used per injection.
Female mice of the strain C57BL/6 (Charles River) were be used. Animal identification and conditions of housing, acclimatisation, environment, diet and water was in accordance with the current Standard Operating Procedures at the animal facilities at Oslo University Hospital—The Radium Hospital.
The animals were inoculated with 500 000 MC-38 cells per tumour, 2 tumours per animal. The size of the tumours on mRNA injection was 60-150 mm^3. Animals were randomized by tumour volume, animals with tumour ulcers were excluded. mRNA was mixed with TPCS2a and the mixture (25 μl) was injected into the tumours at time 0. The pure (naked) mRNA was injected at the same time point.
The injections were performed with gas anesthesia (Sevoflurane). The aim of the injection was to deposit a solution in the centre of the outer third of the tumour, avoiding the central core of the tumour. Insulin syringes were used to deliver the 25 μl of treatment.
The tumours in the PCI groups were illuminated (blue light from LumiSource) 60 min after mRNA/TPCS2a injection according to Table 5. The day after mRNA administration (i.e. around 20 hours after illumination) animals were killed and all tumours were removed and frozen for later homogenization and enzymatic assay for luciferase (Luciferase Assay System, Promega, Cat #E1500). After homogenization the amount of protein in the tumour extract was determined using the RC-DC Protein Assay (Bio-Rad Hercules, California, USA) and the luciferase enzymatic activity per mg tumour was calculated.

tetraphenyl chlorin disulfonate [TPCS2a]
enhancement of mRNA delivery by PCI, mean of all animals versus mRNA only (skin of mice; Example 1A, 12 sites each, 2 μg mRNA + 0.003 μg TPCS2a intradermal, 6 min blue light): about 3 times | mean bio-luminescence for the PCI treated sites versus the mRNA only sites (skin of mice; Example 1A, animal 6, 2 μg luciferase mRNA L-6107 + 0.003 μg TPCS2a intradermal, 6 min blue light, imaged 4 h after illumination): more than 5 times | effect on mRNA delivery, 6 versus 3 min illumination (skin of mice; Example 1B, 3 μg mRNA, 0.003 μg TPCS2a, 6 and 3 min blue light): comparable enhancement of mRNA delivery | effect on mRNA delivery (luciferase expression, fold increase vs mRNA only) (skin of mice; Example 1B, 3 μg mRNA, TPCS2a dose of 0.0003 μg, blue light): improved mRNA delivery | effect on mRNA delivery (luciferase expression, fold increase vs mRNA only) (skin of mice; Example 1B, 3 μg mRNA, TPCS2a doses above 0.3 μg (PCI10, PCI3, PCI1), 6 min blue light): strongly detrimental effect on mRNA delivery | effect on mRNA delivery (luciferase expression, fold increase vs mRNA only) (skin of mice; Example 1B, 3 μg mRNA, TPCS2a doses of 0.01 μg and below, 6 min blue light): significant enhancement of mRNA delivery | effect on mRNA delivery (luciferase expression, fold increase vs mRNA only) (skin of mice; Example 1B, 3 μg mRNA, TPCS2a doses of 0.3 to 0.03 μg, 6 min blue light): did not alter luciferase expression significantly | effect on mRNA delivery (fold increase in luminescence vs mRNA only) (skin of mice; 0.5 min blue light): enhanced mRNA delivery | effect on mRNA delivery (fold increase in luminescence vs mRNA only) (skin of mice; 4 min blue light): enhanced mRNA delivery | improvement of mRNA translation over what was achieved with lipofectamine (skin of mice; Example 1D, 2 μg mRNA L-7202 intradermal, 0.003 μg TPCS2a, 6 min blue light, imaged 4 h after illumination, comparator 6 μl lipofectamine): ~4 times | optimum illumination dose for PCI-enhanced mRNA delivery (TC-1 tumours; 3 μg mRNA + 0.1 μg TPCS2a, red light 652 nm): around 2 J/cm^2 | effect on mRNA delivery versus mRNA alone (RLU/mg protein) (TC-1 tumours; 3 μg mRNA + 0.1 μg TPCS2a, without illuminating the tumours): did not seem to enhance mRNA delivery significantly | effect on mRNA delivery and translation (RLU/mg protein) (TC-1 tumours; 3 μg mRNA L-7202 + 0.1 μg TPCS2a intratumoural, red light 0.1 to 4 J/cm^2, tumours harvested day after illumination): strong enhancement of mRNA delivery and translation | effect on luciferase mRNA delivery (luciferase enzymatic activity in tumour homogenates, single tumours) (MC-38 tumours; 3 μg mRNA + 0.001-0.01 μg TPCS2a intratumoural, harvested 20 h after illumination): substantially enhanced luciferase mRNA delivery | PCI-induced improvement in mRNA delivery compared to mRNA without PCI (group means) (MC-38 tumours; 0.003/6 min group: 3 μg mRNA + 0.003 μg TPCS2a): about 3 times | PCI-induced improvement in mRNA delivery compared to mRNA without PCI (group means) (MC-38 tumours; 0.01/6 min group: 3 μg mRNA + 0.01 μg TPCS2a): about 10 times
